molecular target: T1, human GluN1/GluN2B NMDA receptors (Homo sapiens, UniProt Q13224); assay: Cell-based calcium flux (FLIPR) assay on cloned human NR1/NR2B ion channels expressed in mammalian cells (standard and HTS buffer variants); conditions: HTS assay buffer (1.5 mM MgCl2 dye loading; 150 mM NaCl, 3 mM KCl assay buffer), human GluN1/GluN2B cells, read-out: NR2B IC50 (μM) HTS assay;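 also: stable Tet-On inducible cell line, Ca2+ influx triggered by glutamate at about EC40 plus 10 µM glycine, fluorescent dye read-out over 5 min, normalized to control wells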
T1 construct: expressed in transfected cells
T1 sequence (Q13224 27-1484, other chains not shown): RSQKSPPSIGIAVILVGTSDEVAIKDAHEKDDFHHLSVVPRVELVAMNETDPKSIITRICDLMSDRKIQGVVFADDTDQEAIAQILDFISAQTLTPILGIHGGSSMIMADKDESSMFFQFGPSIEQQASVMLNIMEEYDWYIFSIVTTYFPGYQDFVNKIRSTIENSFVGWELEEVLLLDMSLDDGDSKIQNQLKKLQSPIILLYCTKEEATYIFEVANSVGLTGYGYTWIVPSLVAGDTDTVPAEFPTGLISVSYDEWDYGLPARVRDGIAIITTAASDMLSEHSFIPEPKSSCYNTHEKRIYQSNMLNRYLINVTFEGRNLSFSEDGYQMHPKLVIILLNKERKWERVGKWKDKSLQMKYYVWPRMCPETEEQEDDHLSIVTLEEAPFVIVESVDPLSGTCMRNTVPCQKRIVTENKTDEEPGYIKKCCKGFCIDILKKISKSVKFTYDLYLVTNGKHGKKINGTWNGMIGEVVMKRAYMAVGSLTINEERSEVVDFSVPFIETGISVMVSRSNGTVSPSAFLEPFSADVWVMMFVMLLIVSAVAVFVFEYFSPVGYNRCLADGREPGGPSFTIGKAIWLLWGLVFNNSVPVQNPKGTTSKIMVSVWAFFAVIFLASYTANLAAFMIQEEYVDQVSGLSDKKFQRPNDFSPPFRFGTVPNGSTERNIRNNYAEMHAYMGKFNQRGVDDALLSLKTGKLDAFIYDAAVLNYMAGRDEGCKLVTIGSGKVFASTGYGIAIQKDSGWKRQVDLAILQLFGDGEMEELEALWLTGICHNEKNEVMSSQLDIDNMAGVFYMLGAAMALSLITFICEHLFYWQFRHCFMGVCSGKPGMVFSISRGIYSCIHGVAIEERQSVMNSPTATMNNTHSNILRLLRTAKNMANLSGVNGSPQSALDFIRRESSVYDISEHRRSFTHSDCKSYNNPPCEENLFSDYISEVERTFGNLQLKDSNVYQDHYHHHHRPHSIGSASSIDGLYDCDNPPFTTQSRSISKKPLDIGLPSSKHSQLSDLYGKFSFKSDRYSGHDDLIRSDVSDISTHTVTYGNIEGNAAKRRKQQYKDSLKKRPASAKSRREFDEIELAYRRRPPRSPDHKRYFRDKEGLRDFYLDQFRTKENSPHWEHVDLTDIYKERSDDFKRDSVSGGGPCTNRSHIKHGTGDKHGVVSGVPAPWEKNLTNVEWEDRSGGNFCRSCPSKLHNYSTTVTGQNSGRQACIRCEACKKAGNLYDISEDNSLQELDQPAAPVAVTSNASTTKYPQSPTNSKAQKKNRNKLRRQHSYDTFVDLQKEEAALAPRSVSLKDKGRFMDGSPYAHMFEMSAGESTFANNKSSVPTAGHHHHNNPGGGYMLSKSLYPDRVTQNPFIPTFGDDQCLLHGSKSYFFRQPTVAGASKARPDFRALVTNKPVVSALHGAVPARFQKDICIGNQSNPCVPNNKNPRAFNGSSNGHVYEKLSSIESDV

IC50 [µM] | Structure (SMILES)
1.38 | COc1ccc(-c2cnc3[nH]c(=O)n(CC(=O)NC4CC4)c3c2)c(Cl)c1 [Example 37, 2-[6-(2-Chloro-4-methoxy-phenyl)-2-oxo-3H-imidazo[4,5-b]pyridin-1-yl]-N-cyclopropyl-acetamide]
1.01 | COc1ccc(-c2cnc3[nH]c(=O)n(CC(=O)NC4CC4)c3c2)cc1 [Example 38, N-Cyclopropyl-2-[6-(4-methoxyphenyl)-2-oxo-3H-imidazo[4,5-b]pyridin-1-yl]acetamide]
1.03 | Cc1cc(C)cc(-c2cnc3[nH]c(=O)n(CC(=O)NC4CC4)c3c2)c1 [Example 39, N-Cyclopropyl-2-[6-(3,5-dimethylphenyl)-2-oxo-3H-imidazo[4,5-b]pyridin-1-yl]acetamide]
1.82 | Cc1cc(F)ccc1-c1cnc2[nH]c(=O)n(CC(=O)N(C)C3CC3)c2c1 [Example 40, N-Cyclopropyl-2-[6-(4-fluoro-2-methyl-phenyl)-2-oxo-3H-imidazo[4,5-b]pyridin-1-yl]-N-methyl-acetamide]
8.72 | COc1ccc(-c2cnc3[nH]c(=O)n(CC(=O)N(C)C4CC4)c3c2)cc1 [Example 41, N-Cyclopropyl-2-[6-(4-methoxyphenyl)-2-oxo-3H-imidazo[4,5-b]pyridin-1-yl]-N-methyl-acetamide]
2.71 | Cc1cc(F)ccc1-c1cnc2c(c1)n(CC(=O)NC1CC1)c(=O)n2C [Example 42, N-Cyclopropyl-2-[6-(4-fluoro-2-methyl-phenyl)-3-methyl-2-oxo-imidazo[4,5-b]pyridin-1-yl]acetamide]

same assay, conditions: standard assay buffer (0.5 mM MgCl2 dye loading; 137 mM NaCl, 4 mM KCl assay buffer), human GluN1/GluN2B cells, read-out: NR2B IC50 (μM) standard assay

Structure (SMILES) | IC50 [µM]
Cc1cc(F)ccc1-c1cnc2[nH]c(=O)n(CC(=O)NC3CC3)c2c1 [Example 36, N-Cyclopropyl-2-[6-(4-fluoro-2-methyl-phenyl)-2-oxo-3H-imidazo[4,5-b]pyridin-1-yl]acetamide] | 0.159
Cc1cc(-c2cnc3c(c2)n(Cc2ccncc2)c(=O)n3C)ccc1F [Example 46, 6-(4-Fluoro-3-methyl-phenyl)-3-methyl-1-(4-pyridylmethyl)imidazo[4,5-b]pyridin-2-one] | 0.6
Cc1cc(-c2cnc3c(c2)n(Cc2cncnc2)c(=O)n3C)ccc1F [Example 48, 6-(4-Fluoro-3-methyl-phenyl)-3-methyl-1-(pyrimidin-5-ylmethyl)imidazo[4,5-b]pyridin-2-one] | 0.072
Cn1c(=O)n(Cc2ccncc2)c2cc(-c3ccc(F)c(F)c3)cnc21 [Example 58, 6-(3,4-Difluorophenyl)-3-methyl-1-(4-pyridylmethyl)imidazo[4,5-b]pyridin-2-one] | 1.9
Cn1c(=O)n(Cc2cccnc2)c2cc(-c3ccc(F)c(F)c3)cnc21 [Example 59, 6-(3,4-Difluorophenyl)-3-methyl-1-(3-pyridylmethyl)imidazo[4,5-b]pyridin-2-one] | 0.246
Cn1c(=O)n(Cc2cncnc2)c2cc(-c3ccc(F)c(F)c3)cnc21 [Example 60, 6-(3,4-Difluorophenyl)-3-methyl-1-(pyrimidin-5-ylmethyl)imidazo[4,5-b]pyridin-2-one] | 0.45
Cn1c(=O)n(Cc2ncccn2)c2cc(-c3ccc(F)c(F)c3)cnc21 [Example 64, 6-(3,4-Difluorophenyl)-3-methyl-1-(pyrimidin-2-ylmethyl)imidazo[4,5-b]pyridin-2-one] | 3.59
Cc1c(F)ccc(-c2cnc3c(c2)n(Cc2ncccn2)c(=O)n3C)c1F [Example 65, 6-(2,4-Difluoro-3-methyl-phenyl)-3-methyl-1-(pyrimidin-2-ylmethyl)imidazo[4,5-b]pyridin-2-one] | 0.81
Cc1c(F)ccc(-c2cnc3c(c2)n(Cc2ccncc2)c(=O)n3C)c1F [Example 66, 6-(2,4-Difluoro-3-methyl-phenyl)-3-methyl-1-(4-pyridylmethyl)imidazo[4,5-b]pyridin-2-one] | 0.725
Cc1c(F)ccc(-c2cnc3c(c2)n(Cc2cccnn2)c(=O)n3C)c1F [Example 67, 6-(2,4-Difluoro-3-methyl-phenyl)-3-methyl-1-(pyridazin-3-ylmethyl)imidazo[4,5-b]pyridin-2-one] | 0.009
Cc1c(F)ccc(-c2cnc3c(c2)n(Cc2ccccn2)c(=O)n3C)c1F [Example 68, 6-(2,4-Difluoro-3-methyl-phenyl)-3-methyl-1-(2-pyridylmethyl)imidazo[4,5-b]pyridin-2-one] | 0.31
Cc1c(F)ccc(-c2cnc3c(c2)n(Cc2cncnc2)c(=O)n3C)c1F [Example 69] | 0.033
Cc1c(F)ccc(-c2cnc3c(c2)n(Cc2ccncn2)c(=O)n3C)c1F [Example 72, 6-(2,4-Difluoro-3-methyl-phenyl)-3-methyl-1-(pyrimidin-4-ylmethyl)imidazo[4,5-b]pyridin-2-one] | 0.482

Second part, the compound after the results:

IC50 [µM] | Structure (SMILES)
0.038 | Cc1cc(-c2cnc3c(c2)n(Cc2cccnc2)c(=O)n3C)ccc1F [Example 45, 6-(4-Fluoro-3-methyl-phenyl)-3-methyl-1-(3-pyridylmethyl)imidazo[4,5-b]pyridin-2-one]
0.113 | Cc1cc(-c2cnc3c(c2)n(Cc2cnccn2)c(=O)n3C)ccc1F [Example 47, 6-(4-Fluoro-3-methyl-phenyl)-3-methyl-1-(pyrazin-2-ylmethyl)imidazo[4,5-b]pyridin-2-one]
0.486 | Cc1cc(-c2cnc3c(c2)n(Cc2ncccn2)c(=O)n3C)ccc1F [Example 49, 6-(4-Fluoro-3-methyl-phenyl)-3-methyl-1-(pyrimidin-2-ylmethyl)imidazo[4,5-b]pyridin-2-one]
0.009 | Cc1cc(-c2cnc3c(c2)n(Cc2cccnn2)c(=O)n3C)ccc1F [Example 50, 6-(4-Fluoro-3-methyl-phenyl)-3-methyl-1-(pyridazin-3-ylmethyl)imidazo[4,5-b]pyridin-2-one]
22.6 | Cn1c(=O)n(Cc2cccnc2)c2cc(-c3cccc(F)c3)cnc21 [Example 51, 6-(3-Fluorophenyl)-3-methyl-1-(3-pyridylmethyl)imidazo[4,5-b]pyridin-2-one]
3.33 | Cn1c(=O)n(Cc2ccncc2)c2cc(-c3cccc(F)c3)cnc21 [Example 52, 6-(3-Fluorophenyl)-3-methyl-1-(4-pyridylmethyl)imidazo[4,5-1D]pyridin-2-one]
1.4 | Cn1c(=O)n(Cc2ccccn2)c2cc(-c3cccc(F)c3)cnc21 [Example 53, 6-(3-Fluorophenyl)-3-methyl-1-(2-pyridylmethyl)imidazo[4,5-b]pyridin-2-one]
0.61 | Cn1c(=O)n(Cc2cncnc2)c2cc(-c3cccc(F)c3)cnc21 [Example 54, 6-(3-Fluorophenyl)-3-methyl-1-(pyrimidin-5-ylmethyl)imidazo[4,5-b]pyridin-2-one]
3.03 | Cn1c(=O)n(Cc2cnccn2)c2cc(-c3cccc(F)c3)cnc21 [Example 55, 6-(3-Fluorophenyl)-3-methyl-1-(pyrazin-2-ylmethyl)imidazo[4,5-b]pyridin-2-one]
8.71 | Cn1c(=O)n(Cc2ncccn2)c2cc(-c3cccc(F)c3)cnc21 [Example 56, 6-(3-Fluorophenyl)-3-methyl-1-(pyrimidin-2-ylmethyl)imidazo[4,5-b]pyridin-2-one]
0.2 | Cn1c(=O)n(Cc2cccnn2)c2cc(-c3cccc(F)c3)cnc21 [Example 57, 6-(3-Fluorophenyl)-3-methyl-1-(pyridazin-3-ylmethyl)imidazo[4,5-b]pyridin-2-one]
0.223 | Cn1c(=O)n(Cc2cccnn2)c2cc(-c3ccc(F)c(F)c3)cnc21 [Example 61, 6-(3,4-Difluorophenyl)-3-methyl-1-(pyridazin-3-ylmethyl)imidazo[4,5-b]pyridin-2-one]
2 | Cn1c(=O)n(Cc2ccccn2)c2cc(-c3ccc(F)c(F)c3)cnc21 [Example 62, 6-(3,4-difluorophenyl)-3-methyl-1-(2-pyridylmethyl)imidazo[4,5-b]pyridin-2-one]
2.3 | Cn1c(=O)n(Cc2cnccn2)c2cc(-c3ccc(F)c(F)c3)cnc21 [Example 63, 6-(3,4-Difluorophenyl)-3-methyl-1-(pyrazin-2-ylmethyl)imidazo[4,5-b]pyridin-2-one]
2.21 | Cn1c(=O)n(Cc2ccncn2)c2cc(-c3ccc(F)c(F)c3)cnc21 [Example 70, 6-(3,4-Difluorophenyl)-3-methyl-1-(pyrimidin-4-ylmethyl)imidazo[4,5-b]pyridin-2-one]
0.278 | Cc1cc(-c2cnc3c(c2)n(Cc2ccncn2)c(=O)n3C)ccc1F [Example 71, 6-(4-Fluoro-3-methyl-phenyl)-3-methyl-1-(pyrimidin-4-ylmethyl)imidazo[4,5-b]pyridin-2-one]
0.314 | Cc1nnc(Cn2c(=O)n(C)c3ncc(-c4ccc(F)c(F)c4)cc32)o1 [Example 73, 6-(3,4-Difluorophenyl)-3-methyl-1-[(5-methyl-1,3,4-oxadiazol-2-yl)methyl]imidazo[4,5-b]pyridin-2-one]
0.057 | Cc1cc(Cn2c(=O)n(C)c3ncc(-c4cccc(C(F)(F)F)c4)cc32)no1 [Example 74, 3-Methyl-1-[(5-methylisoxazol-3-yl)methyl]-6-[3-(trifluoromethyl)phenyl]imidazo[4,5-b]pyridin-2-one]
0.093 | Cc1nnc(Cn2c(=O)n(C)c3ncc(-c4cccc(C(F)(F)F)c4)cc32)o1 [Example 75, 3-Methyl-1-[(5-methyl-1,3,4-oxadiazol-2-yl)methyl]-6-[3-(trifluoromethyl)phenyl]imidazo[4,5-b]pyridin-2-one]
0.218 | Cc1noc(Cn2c(=O)n(C)c3ncc(-c4cccc(C(F)(F)F)c4)cc32)n1 [Example 76, 3-Methyl-1-[(3-methyl-1,2,4-oxadiazol-5-yl)methyl]-6-[3-(trifluoromethyl)phenyl]imidazo[4,5-b]pyridin-2-one]
0.457 | Cc1noc(Cn2c(=O)n(C)c3ncc(-c4ccc(F)c(F)c4)cc32)n1 [Example 77, 6-(3,4-Difluorophenyl)-3-methyl-1-[(3-methyl-1,2,4-oxadiazol-5-yl)methyl]imidazo[4,5-b]pyridin-2-one]
